Test results reported in EPA's ToxRefDB 2.

Experiments:
rat [1] = settings: Prenatal developmental toxicity study, sprague dawley, Oral, Gavage/Intubation, dose end: 16 GD, group: maternal
rat [2] = settings: Subchronic dermal toxicity, sprague dawley, Topical, dose end: 14 week, group: systemic
rat [3] = settings: Subchronic oral toxicity in rodents, wistar, Gavage/Intubation, dose end: 90 day, group: systemic
rat [4] = settings: Subchronic oral toxicity in rodents, wistar, Gavage/Intubation, dose end: 90 day, group: systemic; remark: listed apart in the source
rat [5] = settings: Subchronic oral toxicity in rodents, sprague dawley, Feed, dose end: 3 month, group: systemic
rat [6] = settings: Multigenerational reproductive toxicity study, sprague dawley, Oral, Feed, dose end: 2 generation
rat [7] = settings: Subchronic inhalation toxicity, other, Nose-Only, dose end: 90 day, group: systemic, systemic / pathology microscopic / nose / [other] + systemic / pathology microscopic / nose / degeneration + systemic / pathology …
rat [8] = settings: Multigenerational reproductive toxicity study, Sprague-Dawley, Oral, Feed, dose end: 1 generation
rat [9] = settings: Sub-acute dermal toxicity, other, Topical, dose end: 28 day, group: systemic
rat [10] = settings: Multigenerational reproductive toxicity study, fischer, Oral, Feed, dose end: 2 generation
rabbit = settings: Prenatal developmental toxicity study, new zealand white, Oral, Gavage/Intubation, dose end: 18 GD
rat [11] = settings: Prenatal developmental toxicity study, sprague dawley, Oral, Gavage/Intubation, dose end: 15 GD
mouse [12] = settings: Subchronic oral toxicity in rodents, b6c3f1, Feed, dose end: 96 day, group: systemic, systemic / organ weight / liver / absolute + systemic / organ weight / liver / relative to body weight + systemic / organ weight / liver / …
mouse [13] = settings: Carcinogenicity, b6c3f1, Oral, Feed, dose end: 24 month, group: systemic
dog = settings: Chronic toxicity; beagle; Oral; Feed; dose end: 53 week; group: systemic; systemic / clinical chemistry / alkaline phosphatase (alp/alk) / alkaline phosphatase (alp/alk) + systemic / clinical chemistry / …
mouse [14] = settings: Carcinogenicity, b6c3f1, Oral, Feed, dose end: 24 month, group: systemic; remark: listed apart in the source
rat [15] = settings: Combined chronic toxicity/carcinogenicity, fischer, Oral, Feed, dose end: 24 month, group: systemic
[16] = systemic / in life observation / clinical signs / salivation + systemic / in life observation / food consumption / food consumption
[17] = systemic / pathology microscopic / bone marrow / hyperplasia
[18] = systemic / pathology microscopic / bone marrow / hyperplasia + systemic / hematology / mean corpuscular (cell) volume (mcv) / mean …
[19] = systemic / in life observation / clinical signs / righting ability
[20] = systemic / in life observation / clinical signs / righting ability + systemic / in life observation / body weight / body weight + systemic…
[21] = systemic / pathology microscopic / pharynx / lesion(s) (nos)
[22] = systemic / clinical chemistry / cholesterol / cholesterol + systemic / clinical chemistry / phosphorus / phosphorus + systemic / pathology …
[23] = group: offspring, developmental / developmental malformation / trunk / umbilical hernia + developmental / offspring survival late / [other] / [other] + …
[24] = group: parental, systemic / in life observation / clinical signs / body cold to touch + systemic / in life observation / clinical signs / drooping eyelids (…
[25] = group: parental, systemic / pathology microscopic / thyroid gland / colloid content + systemic / pathology microscopic / thyroid gland / hypertrophy + …
[26] = group: reproductive, reproductive / reproductive performance / dystocia / dystocia + reproductive / reproductive performance / postimplantation loss / …
[27] = group: offspring, systemic / in life observation / body weight / offspring (pup) weight + systemic / in life observation / clinical signs / reduced activity
[28] = group: parental, systemic / clinical chemistry / thyroid stimulating hormone (thyrotropin) (tsh) / thyroid stimulating hormone (=thyrotropin) (tsh) + …
[29] = group: parental, systemic / in life observation / clinical signs / nasal discharge + systemic / in life observation / body weight / body weight + systemic / …
[30] = group: reproductive, reproductive / offspring survival early / dead fetuses / dead fetuses + reproductive / offspring survival early / litter size / litter size…
[31] = group: reproductive, reproductive / reproductive performance / reproductive performance other / NOS + reproductive / reproductive performance / pregnancy index…
[32] = systemic / hematology / leukocyte (wbc) count differential / leukocyte (wbc) + systemic / hematology / neutrophils / neutrophils + systemic…
[33] = systemic / pathology microscopic / thyroid gland / altered colloid + systemic / pathology microscopic / thyroid gland / hypertrophy
[34] = group: offspring, systemic / in life observation / body weight / offspring (pup) weight + systemic / pathology microscopic / liver / vacuolization
[35] = group: parental, systemic / organ weight / liver / absolute + systemic / organ weight / liver / relative to body weight
[36] = group: developmental, developmental / developmental malformation / bone / misshapen
[37] = group: maternal, systemic / in life observation / body weight / body weight gain + systemic / organ weight / liver / absolute + systemic / organ weight / …
[38] = group: developmental, developmental / developmental malformation / bone / incomplete ossification + developmental / developmental malformation / bone / short …
[39] = group: maternal, systemic / in life observation / body weight / body weight + systemic / in life observation / body weight / body weight gain + systemic / in…
[40] = systemic / pathology gross / intestine small / discolored + systemic / pathology microscopic / intestine small / [other] + systemic / …
[41] = systemic / pathology microscopic / intestine small / hyperplasia + systemic / pathology microscopic / intestine small / hypertrophy + …
[42] = systemic / in life observation / body weight / body weight gain + systemic / pathology microscopic / kidney / adenocarcinoma + systemic / …

SMILES: CCCCCCCCCCCCN(CCCN)CCCN [1,3-Propanediamine, N-(3-aminopropyl)-N-dodecyl-]
- LEL (rat [1]; systemic / in life observation / clinical signs / salivation): 50 mg/kg/day
- LOAEL (rat [1]; [16]): > 200 mg/kg/day
- NEL (rat [1]; [16]): 25 mg/kg/day
- NOAEL (rat [1]; [16]): ≥ 200 mg/kg/day
- LOAEL (rat [2]; [17]): 5 mg/kg/day
- NOAEL (rat [2]; [17]): < 5 mg/kg/day
- LEL (rat [2]; [18]): 5 mg/kg/day
- NEL (rat [2]; [18]): < 5 mg/kg/day
- LEL (rat [3]; [19]): 10 mg/kg/day
- LOAEL (rat [3]; [19]): 10 mg/kg/day
- NEL (rat [3]; [20]): 5 mg/kg/day
- NOAEL (rat [3]; [20]): 5 mg/kg/day
- LOAEL (rat [4]; systemic / pathology microscopic / kidney / basophilia + systemic / pathology microscopic / kidney / dilatation): 90 mg/kg/day
- LEL (rat [4]; [21]): 5 mg/kg/day
- NEL (rat [4]; [21]): < 5 mg/kg/day

SMILES: Cc1ccc(S(=O)(=O)C(I)I)cc1 [Diiodomethyl 4-methylphenyl sulfone]
- LOAEL (rat [5]; [22]): 80 mg/kg/day
- NEL (rat [5]; [22]): 5 mg/kg/day
- NOAEL (rat [5]; [22]): 20 mg/kg/day
- LEL (rat [5]; systemic / in life observation / clinical signs / scabbing): 20 mg/kg/day
- LOAEL (rat [6]; [23]): > 40 mg/kg/day
- NEL (rat [6]; [23]): 2.5 mg/kg/day
- NOAEL (rat [6]; [23]): ≥ 40 mg/kg/day
- LEL (rat [6]; group: offspring, systemic / in life observation / body weight / offspring (pup) weight + developmental / offspring survival late / viability index / …): 10 mg/kg/day
- LOAEL (rat [6]; [24]): > 40 mg/kg/day
- NOAEL (rat [6]; [24]): ≥ 40 mg/kg/day
- LEL (rat [6]; [25]): 2.5 mg/kg/day
- NEL (rat [6]; [25]): < 2.5 mg/kg/day
- LEL (rat [6]; [26]): 40 mg/kg/day
- LOAEL (rat [6]; [26]): > 40 mg/kg/day
- NEL (rat [6]; [26]): 10 mg/kg/day
- NOAEL (rat [6]; [26]): ≥ 40 mg/kg/day
- LEL (rat [7]): 0.41 ppm
- LOAEL (rat [7]): > 1.74 ppm
- NEL (rat [7]): 0.0579 ppm
- NOAEL (rat [7]): ≥ 1.74 ppm
- LEL (rat [8]; [27]): 80 mg/kg/day
- LOAEL (rat [8]; [27]): > 200 mg/kg/day
- NEL (rat [8]; [27]): 20 mg/kg/day
- NOAEL (rat [8]; [27]): ≥ 200 mg/kg/day
- LOAEL (rat [8]; [28]): > 200 mg/kg/day
- NOAEL (rat [8]; [28]): ≥ 200 mg/kg/day
- LEL (rat [8]; [29]): 20 mg/kg/day
- NEL (rat [8]; [29]): < 20 mg/kg/day
- LEL (rat [8]; [30]): 80 mg/kg/day
- NEL (rat [8]; [30]): 20 mg/kg/day
- LOAEL (rat [8]; [31]): > 200 mg/kg/day
- NOAEL (rat [8]; [31]): ≥ 200 mg/kg/day
- LOAEL (rat [9]; [32]): > 500 mg/kg/day
- NOAEL (rat [9]; [32]): ≥ 500 mg/kg/day
- LEL (rat [9]; [33]): 20 mg/kg/day
- NEL (rat [9]; [33]): < 20 mg/kg/day

SMILES: Clc1cccc(C(Cl)(Cl)Cl)n1 [Nitrapyrin]
- LOAEL (rat [10]; [34]): 75 mg/kg/day
- NEL (rat [10]; [34]): 20 mg/kg/day
- NOAEL (rat [10]; [34]): 20 mg/kg/day
- LEL (rat [10]; group: offspring, systemic / in life observation / body weight / offspring (pup) weight + systemic / pathology microscopic / liver / vacuolization + systemic…): 75 mg/kg/day
- NOAEL (rat [10]; group: parental, systemic / organ weight / kidney / absolute + systemic / organ weight / kidney / relative to body weight + systemic / in life observation / …): 5 mg/kg/day
- LOAEL (rat [10]; group: parental, systemic / organ weight / kidney / absolute + systemic / organ weight / kidney / relative to body weight + systemic / organ weight / liver…): 20 mg/kg/day
- LEL (rat [10]; [35]): 5 mg/kg/day
- NEL (rat [10]; [35]): < 5 mg/kg/day
- LEL (rabbit; [36]): 30 mg/kg/day
- LOAEL (rabbit; [36]): 30 mg/kg/day
- NEL (rabbit; [36]): 10 mg/kg/day
- NOAEL (rabbit; [36]): 10 mg/kg/day
- LEL (rabbit; [37]): 30 mg/kg/day
- LOAEL (rabbit; [37]): 30 mg/kg/day
- NEL (rabbit; [37]): 10 mg/kg/day
- NOAEL (rabbit; [37]): 10 mg/kg/day
- LEL (rat [11]; [38]): 120 mg/kg/day
- LOAEL (rat [11]; [38]): 120 mg/kg/day
- NEL (rat [11]; [38]): 50 mg/kg/day
- NOAEL (rat [11]; [38]): 50 mg/kg/day
- LOAEL (rat [11]; [39]): 120 mg/kg/day
- NEL (rat [11]; [39]): 15 mg/kg/day
- NOAEL (rat [11]; [39]): 50 mg/kg/day
- LEL (rat [11]; group: maternal, systemic / in life observation / body weight / body weight gain): 50 mg/kg/day
- LEL (mouse [12]): 200 mg/kg/day
- LOAEL (mouse [12]): 200 mg/kg/day
- NEL (mouse [12]): < 200 mg/kg/day
- NOAEL (mouse [12]): < 200 mg/kg/day
- LOAEL (mouse [13]; [40]): 75 mg/kg/day
- NEL (mouse [13]; [40]): 5 mg/kg/day
- NOAEL (mouse [13]; [40]): 25 mg/kg/day
- LEL (mouse [13]; systemic / pathology microscopic / intestine small / [other] + systemic / pathology gross / intestine small / discolored + systemic / …): 25 mg/kg/day
- LEL (dog): 15 mg/kg/day
- LOAEL (dog): 15 mg/kg/day
- NEL (dog): 3 mg/kg/day
- NOAEL (dog): 3 mg/kg/day
- LOAEL (mouse [14]; [41]): 125 mg/kg/day
- NOAEL (mouse [14]; [41]): < 125 mg/kg/day
- NEL (mouse [14]; systemic / pathology microscopic / liver / hypertrophy + systemic / pathology microscopic / stomach / hyperkeratosis + systemic / pathology …): 250 mg/kg/day
- LOAEL (rat [15]; systemic / in life observation / body weight / body weight gain): 20 mg/kg/day
- LEL (rat [15]; systemic / in life observation / body weight / body weight gain + systemic / in life observation / body weight / body weight): 20 mg/kg/day
- NEL (rat [15]; [42]): 5 mg/kg/day
- NOAEL (rat [15]; [42]): 5 mg/kg/day
